# Experimental data: patent publication US12521393B2, “Cytotoxicity targeting chimeras for CCR2-expressing cells” (GLAXOSMITHKLINE INTELLECTUAL PROPERTY DEVELOPMENT LIMITED, priority 2021, dated 2026)
# Columns and labels:
# [1] = target: anti-cotinine antibody (SEQ ID NO: 11/12, rabbit variable region with human IgG1 Fc DE mutation); experiment: SPR binding of anti-cotinine antibody to ARM compounds, Biacore T200, 37° C. (Example 202); details: SPR Biacore T200, 37° C., pH 7.4, antibody SEQ ID NO: 11/12 captured on protein A; Kd in molar
# Method: Anti-cotinine antibodies having a heavy chain sequence of SEQ ID NO: 11 and a light chain sequence of SEQ ID NO: 12 (rabbit variable region with human IgG1 Fc domain containing a DE mutation (S239D/1332E)) were captured on one or more flow cells of a protein A sensor chip (Cytiva) using a Biacore T200 while reserving flow cell 1 as a reference. Following capture, a 3000 second wait step was included to reduce drift during compound analysis. ARM compounds of Formula (I) were then injected at 100 μL/min with 200 and 2000 second association and dissociation times. The entire experiment was run at 37° C. with running buffer containing 10 mM HEPES pH 7.4, 150 mM NaCl, 0.005% P20 and 1% DMSO. ARM compounds of Formula (I) were titrated with a top concentration of 200 nM using a 3-fold 5-point dilution series and a corresponding 5-injection buffer cycle was run for blank subtraction. Data were double referenced by subtracting the response of the reference flow cell from that of the antibody-containing flow cell and subsequently subtracting the referenced blank sensorgrams. Following compound analysis, the surface was regenerated using a 30 second injection of pH 1.5 glycine at a flow rate of 30 μL/min after which antibody was re-captured. The experiment was run using Biacore T200 control software and evaluated using Biacore T200 Evaluation software. Curves were fit with a 1:1 kinetic binding model to obtain kon (1/Ms), koff(1/s), Kd (M) determined as koff/kon, and residence time determined as 1/koff (s).
# Anti-cotinine antibody was tested for binding to ARMs compounds of Formula (I) of the invention in the above assay in or more experimental runs and the results are shown in Table 5 below. Affinity is reported as a pKd value. The pKd value is the negative log of the Kd value, wherein the Kd value is the dissociation constant measured in molar (M) as noted above. For compounds tested in more than one experimental run, the pKd value is reported as an average
# [2] = system: endogenous target monocytes in human PBMC; experiment: PBMC ex vivo monocyte depletion flow cytometry assay (Example 200); format: cell-based; details: with anti-cotinine antibody (SEQ ID NO: 11/12), 18-24 hours, EC50 in molar, read-out: Ex Vivo Depletion Assay pEC50 (converted)
# Procedure, shortened: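 Monocyte depletion is reported as pEC50, averaged or given individually across runs, and read by flow cytometry staining CD45, CD14 and CD4 with a viability dye. Compounds, diluted four-fold over 11 points from 1 mM DMSO stocks, were combined with 30 μg/mL Fc-enhanced anti-cotinine antibody and human PBMC, then incubated 18-24 h at 37° C.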
Structure (SMILES),pKd of Antibody for ARM Compound of Formula (I) [1],EC50 [2] [nM]
"CC(C)N(C)[C@@H]1CC[C@H](N2CC[C@H](Nc3ncnc4ccc(C(F)(F)F)cc34)C2=O)[C@H](NC(=O)C2CCN(C(=O)CCOCCOCCOCCNC(=O)[C@H]3CC(=O)N(C)[C@@H]3c3cccnc3)CC2)C1 [Example 29, N-((1R,2S,5R)-5-(Isopropyl(methyl)amino)-2-((S)-2-oxo-3-((6-(trifluoromethyl)quinazolin-4-yl)amino)pyrrolidin-1-yl)cyclohexyl)-1-(1-((2S,3S)-1-methyl-5-oxo-2-(pyridin-3-yl)pyrrolidin-3-yl)-1-oxo-5,8,11-trioxa-2-azatetradecan-14-oyl)piperidine-4-carboxamide]",9.3345,2.51
"CC(C)N(C)[C@@H]1CCC(N2CC[C@H](Nc3ncnc4ccc(C(F)(F)F)cc34)C2=O)[C@H](NC(=O)CCOCCOCCOCCOCCOCCOCCOCCOCCNC(=O)[C@H]2CC(=O)N(C)[C@@H]2c2cccnc2)C1 (stereo partly drawn) [Example 42, (2S,3S)-N-(27-(((1R,2S,5R)-5-(isopropyl(methyl)amino)-2-((S)-2-oxo-3-((6-(trifluoromethyl)quinazolin-4-yl)amino)pyrrolidin-1-yl)cyclohexyl)amino)-27-oxo-3,6,9,12,15,18,21,24-octaoxaheptacosyl)-1-methyl-5-oxo-2-(pyriidn-3-yl)pyrrolidine-3-carboxamide]",9.23,3.16
"CC(C)N(C)[C@@H]1CC[C@H](N2CC[C@H](Nc3ncnc4ccc(C(F)(F)F)cc34)C2=O)[C@H](NC(=O)COCCNC(=O)CCOCCOCCNC(=O)CCNC(=O)[C@H]2CC(=O)N(C)[C@@H]2c2cccnc2)C1 [Example 50, (2S,3S)-N-(1-(((1R,2S,5R)-5-(Isopropyl(methyl)amino)-2-((S)-2-oxo-3-((6-(trifluromethyl)quinazolin-4-yl)amino)pyrrolidin-1-yl)cyclohexyl)amino)-1,7,17-trioxo-3,10,13-trioxa-6,16-diazanonadecan-19-yl)-1-methyl-5-oxo-2-(pyridin-3-yl)pyrrolidine-3-carboxamide]",9.1485,0.126
"CC(C)N(C)[C@@H]1CC[C@H](N2CC[C@H](Nc3ncnc4ccc(C(F)(F)F)cc34)C2=O)[C@H](NC(=O)[C@H]2C[C@H](NC(=O)CCOC[C@H]3CC[C@H](COCCNC(=O)[C@H]4CC(=O)N(C)[C@@H]4c4cccnc4)CC3)C2)C1 [Example 54, (2S,3S)-N-(2-(((1R,4S)-4-((3-(((1R,3R)-3-(((1R,2S,5R)-5-(Isopropyl(methyl)amino)-2-((S)-2-oxo-3-((6-(trifluoromethyl)quinazolin-4-yl)amino)pyrrolidin-1-yl)cyclohexyl)carbamoyl)cyclobutyl)amino)-3-oxopropoxy)methyl)cyclohexyl)methoxy)ethyl)-1-methyl-5-oxo-2-(pyridin-3-yl)pyrrolidine-3-carboxamide]",9.5515,1
"CN1C(=O)C[C@H](C(=O)NCC(=O)NCCOCCOCCC(=O)N[C@H]2CC[C@@H](C(=O)N[C@@H]3C[C@H](NC(C)(C)C)CC[C@@H]3N3CC[C@H](Nc4ncnc5ccc(C(F)(F)F)cc45)C3=O)CC2)[C@H]1c1cccnc1 [Example 65, (2S,3S)-N-(2-((2-(2-(3-(((1S,4s)-4-(((1R,2S,5R)-5-(tert-Butylamino)-2-((S)-2-oxo-3-((6-(trifluoromethyl)quinazolin-4-yl)amino)pyrrolidin-1-yl)cyclohexyl)carbamoyl)cyclohexyl)amino)-3-oxopropoxy)ethoxy)ethyl)amino)-2-oxoethyl)-1-methyl-5-oxo-2-(pyridin-3-yl)pyrrolidine-3-carboxamide]",8.648,100000
"CC(C)N(C)[C@@H]1CC[C@H](N2CC[C@H](Nc3ncnc4ccc(C(F)(F)F)cc34)C2=O)[C@H](NC(=O)[C@H]2C[C@@H](NC(=O)CCOCCOCCNC(=O)CNC(=O)[C@H]3CC(=O)N(C)[C@@H]3c3cccnc3)C2)C1 [Example 66, (2S,3S)-N-(2-((2-(2-(3-(((1S,3s)-3-(((1R,2S,5R)-5-(Isopropyl(methyl)amino)-2-((S)-2-oxo-3-((6-(trifluoromethyl)quinazolin-4-yl)amino)pyrrolidin-1-yl)cyclohexyl)carbamoyl)cyclobutyl)amino)-3-oxopropoxy)ethoxy)ethyl)amino)-2-oxoethyl)-1-methyl-5-oxo-2-(pyridin-3-yl)pyrrolidine-3-carboxamide]",8.649,0.631
"CC(C)N(C)[C@@H]1CC[C@H](N2CC[C@H](Nc3ncnc4ccc(C(F)(F)F)cc34)C2=O)[C@H](NC(=O)COCCOCCNC(=O)COCCNC(=O)CCNC(=O)[C@H]2CC(=O)N(C)[C@@H]2c2cccnc2)C1 [Example 74, (2S,3S)-N-(1-(((1R,2S,5R)-5-(isopropyl(methyl)amino)-2-((S)-2-oxo-3-((6-(trifluoromethyl)quinazolin-4-yl)amino)pyrrolidin-1-yl)cyclohexyl)amino)-1,10,16-trioxo-3,6,12-trioxa-9,15-diazaoctadecan-18-yl)-1-methyl-5-oxo-2-(pyridin-3-yl)pyrrolidine-3-carboxamide]",9.091,100000
"CC(C)N(C)[C@@H]1CC[C@H](N2CC[C@H](Nc3ncnc4ccc(C(F)(F)F)cc34)C2=O)[C@H](NC(=O)CCOCCOCCNC(=O)COCCNC(=O)CCNC(=O)[C@H]2CC(=O)N(C)[C@@H]2c2cccnc2)C1 [Example 75, (2S,3S)-N-(19-(((1R,2S,5R)-5-(Isopropyl(methyl)amino)-2-((S)-2-oxo-3-((6-(trifluoromethyl)quinazolin-4-yl)amino)pyrrolidin-1-yl)cyclohexyl)amino)-3,9,19-trioxo-7,13, 16-trioxa-4, 10-diazanonadecyl)-1-methyl-5-oxo-2-(pyridin-3-yl)pyrrolidine-3-carboxamide]",9.103,1
"CC(C)N(C)[C@@H]1CC[C@H](N2CC[C@H](Nc3ncnc4ccc(C(F)(F)F)cc34)C2=O)[C@H](NC(=O)COCCNC(=O)CCNC(=O)COCCOCCNC(=O)[C@H]2CC(=O)N(C)[C@@H]2c2cccnc2)C1 [Example 79, (2S,3S)-N-(18-(((1R,2S,5R)-5-(Isopropyl(methyl)amino)-2-((S)-2-oxo-3-((6-(trifluoromethyl)quinazolin-4-yl)amino)pyrrolidin-1-yl)cyclohexyl)amino)-8,12,18-trioxo-3,6,16-trioxa-9,13-diazaoctadecyl)-1-methyl-5-oxo-2-(pyridin-3-yl)pyrrolidine-3-carboxamide]",9.126,3.16
"CN1C(=O)C[C@H](C(=O)NCCOCC(=O)NCCOCC(=O)NCCOCCC(=O)N[C@@H]2C[C@H](NC(C)(C)C)CC[C@@H]2N2CC[C@H](Nc3ncnc4ccc(C(F)(F)F)cc34)C2=O)[C@H]1c1cccnc1 [Example 103, (2S,3S)-N-(18-(((1R,2S,5R)-5-(tert-Butylamino)-2-((S)-2-oxo-3-((6-(trifluoromethyl)quinazolin-4-yl)amino)pyrrolidin-1-yl)cyclohexyl)amino)-5,11,18-trioxo-3,9,15-trioxa-6, 12-diazaoctadecyl)-1-methyl-5-oxo-2-(pyridin-3-yl)pyrrolidine-3-carboxamide]",9.0985,100000
"CC(C)N(C)[C@@H]1CC[C@H](N2CC[C@H](Nc3ncnc4ccc(C(F)(F)F)cc34)C2=O)[C@H](NC(=O)[C@H]2CC[C@@H](NC(=O)COCCOCCNC(=O)CNC(=O)[C@H]3CC(=O)N(C)[C@@H]3c3cccnc3)CC2)C1 [Example 171, (2S,3S)-N-(2-((2-(2-(2-(((1S,4s)-4-(((1R,2S,5R)-5-(Isopropyl(methyl)amino)-2-((S)-2-oxo-3-((6-(trifluoromethyl)quinazolin-4-yl)amino)pyrrolidin-1-yl)cyclohexyl)carbamoyl)cyclohexyl)amino)-2-oxoethoxy)ethoxy)ethyl)amino)-2-oxoethyl)-1-methyl-5-oxo-2-(pyridin-3-yl)pyrrolidine-3-carboxamide]",8.7865,–
